Measurements taken from US6461997B1, “Triazole sulfones having herbicidal activity” (Monsanto Technology LLC, priority 1999, dated 2002).

Legend:
[1] = tested on: PANMI (wild proso millet); assay: Pre-plant incorporated (PPI) herbicidal activity, warm season; format: in vivo, Panicum miliaceum; details: for Percent inhibition PANMI: PPI application
Method: (§1) In another set of tests, the pre-plant incorporated (PPI) activity of compounds of this invention was evaluated on the same species as for the pre-emergence tests described above. In the PPI tests the following procedure, designed to simulate PPI application, was used.
(§2) A pre-prepared topsoil mixture (described above) was placed in a pot and compacted to a depth of 1.0 to 1.25 cm from the top of the pot. Seeds of each of several monocotyledonous and dicotyledonous annual plant species were placed on top of the soil. A sufficient quantity of soil to cover the seeds and level fill the pot was weighed into an open container. A known amount of the test compound was dissolved or suspended in an organic solvent and applied by spraying to this cover soil. The cover soil was thoroughly mixed to distribute the test compound throughout the cover soil, and was then applied as a cover layer over the seeds. Untreated soil was used as a cover layer for control pots. After treatment the plants were placed in a greenhouse where they received 0.64 cm of overhead irrigation. All subsequent watering consisted of a light overhead mist and/or subirrigation as needed for germination and growth. Tables 9 and 10 below relate to warm season plant species which were placed after pre-emergence treatment in a greenhouse with a 30/21° C. day/night temperature regime. Tables 11 and 12 below relates to cool season plant species placed after pre-emergence treatment in a greenhouse or growth chamber with an 18/13° C. day/night temperature regime. Only the compounds of Examples 1, 6, 8, 11, 13 and 15-20 were included in PPI tests.
(§3) Approximately 14 days after planting and treating, the plants were observed and herbicidal efficacy recorded as percent inhibition by comparison with untreated plants.

AMARE (redroot pigweed) = assay: Pre-emergence herbicidal activity, warm season; format: in vivo, Amaranthus retroflexus; details: GR80 = lowest tested rate (300, 100, 30, 10 g/ha) with 80% or greater inhibition; approx. 14 days after treating; 30/21° C.
Outline: (§4)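 GR80 values derive from percent inhibition relative to untreated plants, read roughly 14 days after sowing and pre-emergence soil-surface treatment (compound in 50:50 acetone/water; rates typically 10, 30, 100, 300 g/ha). Warm-season weeds grew at 30/21° C day/night, cool-season ones at 18/13° C; an asterisk marks activity without reaching 80% at the highest rate.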

ECHCG (barnyardgrass) = assay: Pre-emergence herbicidal activity, warm season; format: in vivo, Echinochloa crus-galli; details: GR80 = lowest tested rate (300, 100, 30, 10 g/ha) with 80% or greater inhibition; approx. 14 days after treating; 30/21° C.
Outline: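 Seeds sown in sterilised fertilised topsoil received surface-applied compound in 50:50 acetone/water, typically at 300, 100, 30 and 10 g/ha, then greenhouse-grown at 30/21° C (warm-season species) or 18/13° C (cool-season species). Percent inhibition versus untreated plants was scored at about 14 days, giving GR80; an asterisk marks activity short of 80% at the top rate.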

POROL (common purslane) = assay: Pre-plant incorporated (PPI) herbicidal activity, warm season; format: in vivo, Portulaca oleracea; details: GR80 = lowest tested rate with 80% or greater inhibition, approx. 14 days after treating, 30/21° C.
Method: as §1, §2, §3

[2] = tested on: GALAP (catchweed bedstraw); assay: Pre-emergence herbicidal activity, cool season; format: in vivo, Galium aparine; details: lowest tested rate with 80% or greater inhibition; rates 300, 100, 30, 10 g/ha; about 14 days
Outline: as §4

oilseed rape (BRSNS) = assay: Selectivity test, PPI, cool season crop; format: in vivo, Brassica napus; details: PPI application
Method: as §2, §3
Additional pre-emergence and PPI tests were conducted by the procedures described above, on warm and cool season weed species in the presence of crop species, to assess herbicidal selectivity. Crop species included in warm season tests were corn (Zea mays, ZEAMX), rice (Oryza sativa, ORYSA) and soybean (Glycine max, GLYMX). Crop species included in cool season tests were wheat (Triticum aestivum, TRZAW), barley (Hordeunm vulgare, HORVX) and oilseed rape (Brassica napus, BRSNS).
Tables 15 and 16 relate to pre-emergence and PPI tests respectively on warm season species. Table 17 relates to pre-emergence tests on cool season species.

SOLNI (black nightshade) [3] = assay: Pre-plant incorporated (PPI) herbicidal activity, warm season; format: in vivo, Solanum nigrum; details: for Percent inhibition SOLNI: PPI application
Method: as §1, §2, §3

[4] = tested on: CHEAL (common lambsquarters); assay: as above; format: in vivo, Chenopodium album; details: for Percent inhibition CHEAL: PPI application
Method: as §1, §2, §3

SOLNI (black nightshade) [5] = assay: Pre-emergence herbicidal activity, warm season; format: in vivo, Solanum nigrum; details: GR80 = lowest tested rate (300, 100, 30, 10 g/ha) with 80% or greater inhibition; approx. 14 days after treating; 30/21° C.
Outline: as §4

[6] = tested on: CIRAR (canada thistle (seedling)); assay: Pre-plant incorporated (PPI) herbicidal activity, warm season; format: in vivo, Cirsium arvense; details: GR80 = lowest tested rate with 80% or greater inhibition, approx. 14 days after treating, 30/21° C.
Method: as §1, §2, §3

[7] = pre-plant incorporated, GR80 = lowest tested rate with 80% or greater inhibition, approx. 14 days after treating, 30/21° C.

CCN(CC)C(=O)n1cnc(S(=O)(=O)C(F)(F)SCC(=O)OC)n1 [Example 11]
Percent inhibition PANMI ([1]; 30 g/ha): 0%
Percent inhibition PANMI ([1]; 100 g/ha): 20%
Percent inhibition PANMI ([1]; 300 g/ha): 80%
Percent inhibition PANMI ([1]; 900 g/ha): 100%
PPI activity GR80, PANMI ([1]; pre-plant incorporated, lowest tested rate with 80% or greater inhibition, about 14 days): * (activity observed, at least at highest rate, but <80% inhibition)
Pre-emergence activity (GR80) AMARE (AMARE (redroot pigweed)): 100 g/ha
Pre-emergence activity (GR80) ECHCG (ECHCG (barnyardgrass)): * (activity observed, at least at highest rate, but <80% inhibition)
PPI activity (GR80) POROL (POROL (common purslane)): 300 g/ha
Pre-emergence activity GR80, GALAP [2]: [empty]
Percent inhibition BRSNS (oilseed rape (BRSNS); 10 g/ha): 0%
Percent inhibition BRSNS (oilseed rape (BRSNS); 30 g/ha): 0%
Percent inhibition BRSNS (oilseed rape (BRSNS); 100 g/ha): 0%
Percent inhibition BRSNS (oilseed rape (BRSNS); 300 g/ha): 0%
Percent inhibition BRSNS (oilseed rape (BRSNS); 900 g/ha): 0%
Percent inhibition SOLNI (SOLNI (black nightshade) [3]; 10 g/ha): 0%
Percent inhibition SOLNI (SOLNI (black nightshade) [3]; 30 g/ha): 0%
Percent inhibition SOLNI (SOLNI (black nightshade) [3]; 100 g/ha): 30%
Percent inhibition SOLNI (SOLNI (black nightshade) [3]; 300 g/ha): 50%
Percent inhibition SOLNI (SOLNI (black nightshade) [3]; 900 g/ha): 100%
PPI activity (GR80) SOLNI (SOLNI (black nightshade) [3]; [7]): 300 g/ha
Percent inhibition CHEAL ([4]; 10 g/ha): 30%
Percent inhibition CHEAL ([4]; 30 g/ha): 60%
Percent inhibition CHEAL ([4]; 100 g/ha): 60%
Percent inhibition CHEAL ([4]; 300 g/ha): 100%
Percent inhibition CHEAL ([4]; 900 g/ha): 100%
PPI activity (GR80) CHEAL [4, 7]: 100 g/ha
Pre-emergence activity (GR80) SOLNI (SOLNI (black nightshade) [5]): 300 g/ha
PPI activity (GR80) CIRAR [6]: 100 g/ha
